Data from PMC3748812 (Angewandte Chemie (International ed. in English), 2013).

Columns and labels:
Type in all cases: biochemical
[1] = target: T1, ethylbenzene dehydrogenase (EbDH) (Aromatoleum aromaticum, UniProt Q5P5I0); assay: inhibition of ethylbenzene-dependent activity, dose response; details: substrate ethylbenzene; preincubated with inhibitor
[2] = target: T1, ethylbenzene dehydrogenase (EbDH); assay: ethylbenzene hydroxylation activity assay; details: native substrate; Km in text is cited from an earlier paper
[3] = target: T1, ethylbenzene dehydrogenase (EbDH); assay: inhibition of ethylbenzene-dependent activity; details: substrate ethylbenzene

Compound | IC50 [1] [µM] | further results
CCN1BC=CC=C1 [N-ethyl-1,2-azaborine] | 2.8 | 
CCc1ccccc1 [ethylbenzene] |  | ethylbenzene hydroxylation activity assay [2]: Nonlinear plots of the remaining ethylbenzene-dependent activity of EbDH
CCn1ccnc1 [N-ethylimidazole] |  | IC50 [3]: 2.2 mM
CCB1C=CC=CN1 [B-ethyl-1,2-azaborine] | 100 | 
